Legend:
[1] = Stability of CoQ10 in a 50° C. oven open to the air (HPLC); assay type: physicochemical; conditions: for Loss of CoQ10 after 36 days at 50° C. (equivalent to 3 months at room temperature) / Loss of CoQ10 after 72 days at 50° C. (equivalent to 6 months at room temperature): open to the air
Experimental: 100 mg of USP CoQ10 (Sigma) and a composition from Example 1 was placed in a 10 ml beaker in a 50° C. oven open to the air. The amount of CoQ10 remaining was analyzed by HPLC using a C18 column (Perkin Elmer Pecosil 5, 15 cm) and a solvent of 75% methanol and 25% isopropanol.

[2] = test system: lower density lipoproteins (LDL+VLDL); assay: Inhibition of cupric ion oxidation of lower density lipoproteins (quality of antioxidant activity); conditions: 6 hours

Row | Loss of CoQ10 at 0 days ([1]; 0 days) [%] | Loss of CoQ10 after 36 days at 50° C. (equivalent to 3 months at room temperature) ([1]; listed as USP CoQ10) [%] | Loss of CoQ10 after 36 days at 50° C. (equivalent to 3 months at room temperature) ([1]; listed as commercial CoQ10) [%] | Loss of CoQ10 after 72 days at 50° C. (equivalent to 6 months at room temperature) ([1]; listed as USP CoQ10) [%] | Loss of CoQ10 after 72 days at 50° C. (equivalent to 6 months at room temperature) ([1]; listed as commercial sample) [%] | IC50 ([2]; LDL+VLDL oxidation, 25 μM cupric ion, 37° C., based on CoQ10 conc.) [µM] | IC50 ([2]; concentration of selenium to inhibit LDL+VLDL oxidation 50%, cupric ion) [µM] | SMILES
1 | 0 | 6.8 | 6.8 | 16.8 | 16.8 | 1.33 |  | COC1=C(OC)C(=O)C(C/C=C(\C)CC/C=C(\C)CC/C=C(\C)CC/C=C(\C)CC/C=C(\C)CC/C=C(\C)CC/C=C(\C)CC/C=C(\C)CC/C=C(\C)CCC=C(C)C)=C(C)C1=O [CoQ10 (USP), CoEnzyme Q10]
2 |  |  |  |  |  |  | 27 | C[Se]CC[C@H](N)C(=O)O [Selenomethionine]

— patent US7138113B2, “Glycoprotein matrix compositions and methods related thereto” (Pharmachem Laboratories, Inc., priority 2001, dated 2006)
